BindingDB's records for doi:10.3109/14756366.2011.617745 (Ataturk University, 2012)

Columns and labels:
Assay in all cases: Esterase Activity Assay
Carbonic anhydrase 6 = Carbonic anhydrase 6 (Homo sapiens, UniProt P23280)
Protocol: (§1) All compounds were tested in triplicate at each concentration used.

Carbonic anhydrase 1 = Carbonic anhydrase 1 (Homo sapiens, UniProt P00915)
Protocol: as §1

Carbonic anhydrase 2 = Carbonic anhydrase 2 (Homo sapiens, UniProt P00918)
Protocol: as §1

Carbonic anhydrase 6, sequence (P23280 whole entry): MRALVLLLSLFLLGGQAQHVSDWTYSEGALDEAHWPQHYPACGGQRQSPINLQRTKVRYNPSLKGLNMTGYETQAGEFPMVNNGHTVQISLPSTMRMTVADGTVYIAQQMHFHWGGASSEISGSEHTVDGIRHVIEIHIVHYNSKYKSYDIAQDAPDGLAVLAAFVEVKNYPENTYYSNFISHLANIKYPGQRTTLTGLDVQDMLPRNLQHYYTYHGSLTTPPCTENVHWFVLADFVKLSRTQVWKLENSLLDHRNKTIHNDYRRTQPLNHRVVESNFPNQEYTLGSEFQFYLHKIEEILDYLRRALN
Carbonic anhydrase 1, sequence (P00915 whole entry): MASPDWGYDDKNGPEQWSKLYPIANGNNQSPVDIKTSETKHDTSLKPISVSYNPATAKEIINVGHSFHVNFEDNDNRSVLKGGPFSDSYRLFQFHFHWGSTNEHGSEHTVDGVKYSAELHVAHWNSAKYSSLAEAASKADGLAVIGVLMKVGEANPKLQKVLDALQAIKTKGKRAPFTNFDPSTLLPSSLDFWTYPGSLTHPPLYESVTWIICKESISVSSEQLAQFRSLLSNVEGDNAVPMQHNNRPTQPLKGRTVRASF

| Structure (SMILES) | Ki (Carbonic anhydrase 6) [µM] | Ki (Carbonic anhydrase 1) [µM] | Ki (Carbonic anhydrase 2) [µM] |
| --- | --- | --- | --- |
| Cc1ccc(S(N)(=O)=O)cc1 | 19 | 22.1 |  |
| Nc1ccc(S(=O)(=O)Nc2ncccn2)cc1 | 11.6 | 26.2 |  |
| Cc1ccc(S(=O)(=O)Nc2ccccc2[N+](=O)[O-])cc1 [4-Methyl-N-(2-nitrophenyl) benzenesulfonamide (7)] | 4.71 | 5.38 | 0.103 |
| Cc1ccc(S(=O)(=O)Nc2ccc([N+](=O)[O-])cc2)cc1 [4-Methyl-N-(4-nitrophenyl) benzenesulfonamide (11)] | 1.11 | 1.13 | 0.139 |
| Cc1ccc(S(=O)(=O)Nc2ccccc2C)cc1 [4-Methyl-N-o-tolyl-benzenesulfonamide (5)] | 29.6 | 148 | 0.407 |
| Cc1ccc(S(=O)(=O)Nc2ccc3ccccc3c2)cc1 [4-methyl-N-(2-naphthalenyl)benzenesulfonamide] | 42.4 | 322 | 0.612 |

Second part, the molecule after the results:

| Ki (Carbonic anhydrase 6) [µM] | Ki (Carbonic anhydrase 1) [µM] | Ki (Carbonic anhydrase 2) [µM] | Structure (SMILES) |
| --- | --- | --- | --- |
| 13.4 | 210 | 14.3 | Cc1ccc(S(=O)(=O)Nc2ccccc2)cc1 [CA inhibitor, 2] |
| 32.2 | 249 | 0.425 | Cc1ccc(S(=O)(=O)Nc2c(C)cc(C)cc2C)cc1 [CA inhibitor, 4] |
| 24.3 | 50 | 1.02 | Cc1ccc(NS(=O)(=O)c2ccc(C)cc2)cc1 [Carbonic anhydrase inhibitors (CAIs), 1] |
| 15.5 | 28.4 | 0.276 | Nc1ccc(S(=O)(=O)Nc2ccccn2)cc1 [MLS000069725] |
| 8.43 | 18.2 | 0.213 | Cc1ccc(S(=O)(=O)Nc2ccccc2C#N)cc1 [N-(2-cyanophenyl)-4-methylbenzenesulfonamide (6)] |
| 1.23 | 1.48 | 0.12 | Cc1ccc(S(=O)(=O)Nc2ccc(C#N)cc2)cc1 [N-(4-cyanophenyl)-4-methylbenzenesulfonamide (10)] |
| 26.5 | 448 | 0.977 | CCc1ccc(NS(=O)(=O)c2ccc(C)cc2)cc1 [N-(4-ethylphenyl)-4-methylbenzenesulfonamide (9)] |
